In patent US20250011351A1, “[…] O-ACETYLPSILOCIN, SALTS AND SOLID STATE FORMS THEREOF” (Terran Biosciences Inc., priority 2021, published 2025):
Entries after “also recorded” stand apart in the source; their conditions may differ.

What was measured:
[1] = Dynamic vapor sorption (DVS) analysis with XRPD of the post-DVS specimen; type: physicochemical; details: for hygroscopicity (in words): DVS at 25° C., RH range given with the value; for hydrate formation: hysteresis of the DVS curve; for solid form of the post-DVS specimen: XRPD after the DVS experiment (5 to 95% RH and back); for overall water uptake: range between 5-95% RH
Experimental: (§1) DVS analysis was carried out using a TA Instruments Q5000 Dynamic Vapor Sorption analyzer. The instrument was calibrated with standard weights and a sodium bromide standard for humidity. Approximately 10-25 mg of sample was loaded into a metal-coated quartz pan for analysis. The sample was analyzed at 25° C. with a maximum equilibration time of one hour in 10% relative humidity (RH) steps from 5 to 95% RH (adsorption cycle) and from 95 to 5% RH (desorption cycle). The movement from one step to the next occurred either after satisfying the equilibrium criterion of 0.01% weight change or, if the equilibrium criterion was not met, after one hour. The percent weight change values were calculated using Microsoft Excel®.
as §1, with “Dynamic Vapor Sorption (DVS)” for “DVS”, “is” for “was”, “is” for “were”, “Excel.” for “Excel®.”

[2] = Estimated solubility by adding solvent in aliquots to weighed solid, dissolution judged by visual inspection; details: for Estimated Solubilities / Solubility: room temperature
5-HT2A receptors = molecular target: T1, 5-HT2A receptors (Mus musculus, UniProt P35363); test: Psilocybin-induced head-twitch response in mice, antagonist given i.v. 7 min after psilocybin; type: in vivo, C57BL/6J mice; details: for effect on psilocybin-induced head-twitch response: cumulative head twitches until 40 min, groups of 3 mice; for effect on psilocybin-induced head twitch, summary of Examples 13-21: antagonist administered after psilocybin, compared to vehicle-treated mice, dose not restated; for Result (suppression of psilocybin-induced head twitch): 5HT2A antagonist i.v. at T=7 min
T1 construct: from tissue; host or cells: whole living C57BL/6J mice (in vivo behavioural assay)
From the text: The head-shake response is elicited by a wide variety of known hallucinogens such as LSD, psilocybin, psilocin, N,N-dimethyltryptamine (DMT), and mescaline as well as serotonin-releasing agents and direct 5-HT2 agonists. […] Later studies have confirmed 5-HT2A receptors are the primary, direct mediators of the response and that the headshake response in rats is essentially the same as head-twitches in mice, at least in regards to similarity in appearance and 5-HT2A receptor dependence.
Male C57BL/6J mice (approximately 25 g) were group housed. Animals were maintained under a 12 h light/dark cycle, at 23° C. with humidity controlled.
(§2) At T=−60 min, C57BL/6J mice were individually housed into transparent observation cages with bedding removed and left to habituate. At T=−3 min, mice were placed into heated cages at 40° C. At T=0 h, groups of 3 mice were dosed intraperitoneally with psilocybin (2 mg/kg). Following dosing, mice were replaced into the heated cages and head-twitch responses continuously scored for 7 min. After 7 min, mice were intravenously dosed via the lateral tail vein with either vehicle 1 (saline) or volinanserin 1 mg/kg in 5 mL/kg dosing volumes. Mice were replaced into the observation cages and head twitch behavior were monitored until 40 min after agonist dosing. Cumulative head-twitches were measured every 2 minutes until 40 minutes after agonist dosing.
as §2, with “min. […]” for “min. After 7 min, mice were intravenously dosed via the lateral tail vein with either vehicle 1 (saline) or volinanserin 1 mg/kg in 5 mL/kg dosing volumes.”, “behavior was” for “behavior were”, “Cumulative head-twitch behavior was” for “Cumulative head-twitches were”
as §2, with “min. […]” for “min. After 7 min, mice were intravenously dosed via the lateral tail vein with either vehicle 1 (saline) or volinanserin 1 mg/kg in 5 mL/kg dosing volumes.”, “behavior was” for “behavior were”, “Cumulative head-twitch behavior was” for “Cumulative head-twitches were”
as §2, with “min. […]” for “min. After 7 min, mice were intravenously dosed via the lateral tail vein with either vehicle 1 (saline) or volinanserin 1 mg/kg in 5 mL/kg dosing volumes.”, “behavior was” for “behavior were”, “Cumulative head-twitch behavior was” for “Cumulative head-twitches were”
as §2, with “min. […]” for “min. After 7 min, mice were intravenously dosed via the lateral tail vein with either vehicle 1 (saline) or volinanserin 1 mg/kg in 5 mL/kg dosing volumes.”, “behavior was” for “behavior were”, “Cumulative head-twitch behavior was” for “Cumulative head-twitches were”
At T=−60 min, C57BL/6J mice were individually housed into transparent observation cages with bedding removed and left to habituate.

[3] = antagonist 1 mg/kg i.v. 7 min after psilocybin 2 mg/kg i.p.
[4] = antagonist 4 mg/kg i.v. 7 min after psilocybin 2 mg/kg i.p.
[5] = psilocybin 2 mg/kg i.p., head twitches scored to 40 min

T1 sequence (P35363 whole entry): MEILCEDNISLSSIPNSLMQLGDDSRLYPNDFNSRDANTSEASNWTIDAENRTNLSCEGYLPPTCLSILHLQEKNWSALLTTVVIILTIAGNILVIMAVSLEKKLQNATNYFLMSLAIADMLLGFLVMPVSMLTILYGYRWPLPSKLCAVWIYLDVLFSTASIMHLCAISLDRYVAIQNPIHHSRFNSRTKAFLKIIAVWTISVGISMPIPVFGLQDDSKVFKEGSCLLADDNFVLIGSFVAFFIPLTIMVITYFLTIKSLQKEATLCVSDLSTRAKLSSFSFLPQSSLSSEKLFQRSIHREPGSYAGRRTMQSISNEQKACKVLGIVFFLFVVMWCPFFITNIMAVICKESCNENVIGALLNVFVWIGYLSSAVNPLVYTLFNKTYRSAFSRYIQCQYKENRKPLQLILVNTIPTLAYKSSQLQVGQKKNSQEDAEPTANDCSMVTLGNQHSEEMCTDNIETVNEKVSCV

CC(=O)Oc1cccc2[nH]cc(CCN(C)C)c12.O=C(O)C[C@H](O)C(=O)O [L-malate salt, Form B, O-Acetyl Psilocin Malate]
hygroscopicity (in words) [1]: non-hygroscopic in the range between 5-85% RH; also recorded: hygroscopic above 850% RH
Water uptake ([1]; DVS, above 85% RH): approx. 4.500%
hydrate formation ([1]; DVS, above 85% RH): no hydrate formation occurred
hydrate formation ([1]; DVS, above 85% RH, listed as Malate B): possible hydrate formation
solid form of the post-DVS specimen [1]: consistent with Form B

CC(=O)Oc1cccc2[nH]cc(CCN(C)C)c12.O=C(O)C(O)C(O)C(=O)O [L-tartrate salt, Form A, O-Acetyl Psilocin Tartrate]
hygroscopicity (in words) [1]: non-hygroscopic in the range from 5-85% RH; also recorded: hygroscopic above 85% RH
Water uptake ([1]; DVS, above 85% RH): approx. 6%
hydrate formation ([1]; DVS, above 85% RH): consistent with hydrate formation
hydrate formation ([1]; DVS, above 85% RH, listed as Tartrate A): possible hydrate formation
solid form of the post-DVS specimen [1]: consistent with Form A by XRPD analysis and exhibited additional diffraction peaks

CC(=O)Oc1cccc2[nH]cc(CCN(C)C)c12.O=C(O)C(O)C(O)C(=O)O [L-tartrate, Form A]
RH above which hygroscopic (DVS) ([1]; DVS): > 85 % RH
RH range in which non-hygroscopic (DVS) ([1]; DVS): 5-85 % RH
hydrate formation upon DVS ([1]; DVS, high RH): resulting in hydrate
water uptake, DVS ([1]; above 85% RH): ~6%

CC(=O)Oc1cccc2[nH]cc(CCN(C)C)c12.O=C(O)CC(O)C(=O)O [Malate Form B]
Water uptake ([1]; 5-85% RH): 0.8%, 5-85% RH;
Water uptake (25-65% RH) % [1]: ~0.3%
Water uptake ([1]; above 85% RH): 4.5% above 85%

CC(=O)Oc1cccc2[nH]cc(CCN(C)C)c12 [O-Acetyl Psilocin Freebase, O-Acetyl Psilocin]
Estimated Solubilities ([2]; 1,4-dioxane): >62
Estimated Solubilities ([2]; 2-methyltetrahydrofuran 2-Me(THF)): >50
Estimated Solubilities ([2]; 2-propanol (2-PrOH)): >32
Estimated Solubilities ([2]; Methyl ethyl ketone (MEK)): >51
Estimated Solubilities ([2]; Methyl tert-butyl ether (MTBE)): >23
Estimated Solubilities ([2]; acetone): >59
Estimated Solubilities ([2]; acetonitrile (ACN)): >67
Estimated Solubilities ([2]; ethanol (EtOH)): >62
Estimated Solubilities ([2]; hexanes): <1
Estimated Solubilities ([2]; methanol (MeOH)): >62
Estimated Solubilities ([2]; toluene): >59
Estimated Solubilities ([2]; water): <1

CC(=O)Oc1cccc2[nH]cc(CCN(C)C)c12.O=C(O)/C=C/C(=O)O [O-acetylpsilocin fumarate Form A, O-acetylpsilocin fumarate]
hygroscopicity (in words) [1]: non-hygroscopic
overall water uptake ([1]; DVS): approx. 0.1%
Solubility ([2]; 1,4-dioxane): <1 mg/mL
Solubility ([2]; 2-propanol (2-PrOH)): 1 mg/mL
Solubility ([2]; 50:50 MeOH:water): >33 mg/mL
Solubility ([2]; 50:50 THF:water): >55 mg/mL
Solubility ([2]; 70:30 ACN:water): >75 mg/mL
Solubility ([2]; 70:30 acetone:water): >51 mg/mL
Solubility ([2]; 95:5 1,4-dioxane:water): 3 mg/mL
Solubility ([2]; 95:5 ACN:water): 12 mg/mL
Solubility ([2]; 95:5 EtOH:water): 9 mg/mL
Solubility ([2]; 95:5 IPA:water): 4 mg/mL
Solubility ([2]; 95:5 MeOH:water): >26 mg/mL
Solubility ([2]; 95:5 THF:water): >17 mg/mL
Solubility ([2]; 95:5 acetone:water): 10 mg/mL
Solubility ([2]; acetone): <1 mg/mL
Solubility ([2]; acetonitrile (ACN)): <1 mg/mL
Solubility ([2]; dichloromethane (DCM)): <1 mg/mL
Solubility ([2]; ethanol (EtOH)): 2 mg/mL
Solubility ([2]; ethyl acetate (EtOAc)): <1 mg/mL
Solubility ([2]; hexanes): <1 mg/mL
Solubility ([2]; methanol (MeOH)): 2 mg/mL
Solubility ([2]; tetrahydrofuran (THF)): 1 mg/mL
Solubility ([2]; toluene): <1 mg/mL
Solubility ([2]; water): 11 mg/mL

CC(=O)Oc1cccc2[nH]cc(CCN(C)C)c12.O=C(O)C(O)C(O)C(=O)O [Tartrate Form A]
Water uptake (25-65% RH) % [1]: 0.1%
Water uptake ([1]; 85-95% RH): 5-6% 85-95% RH
RH at which likely hydrate formation is shown ([1]; listed as 'Other forms'): at 95% RH

O=c1[nH]c2ccccc2n1CCN1CCN(c2cccc(C(F)(F)F)c2)CC1 [flibanserin]
effect on psilocybin-induced head-twitch response (5-HT2A receptors; [3]): partially suppressed
effect on psilocybin-induced head-twitch response (5-HT2A receptors; [4]): partially suppressed
effect on psilocybin-induced head twitch, summary of Examples 13-21 (5-HT2A receptors): partial suppression
Result (suppression of psilocybin-induced head twitch) (5-HT2A receptors; [5]): Partial suppression of head twitch

O=C(c1ccc(F)cc1)C1CCN(CCn2c(=O)[nH]c3ccccc3c2=O)CC1 [ketanserin]
effect on psilocybin-induced head-twitch response (5-HT2A receptors; antagonist 2 mg/kg i.v. 7 min after psilocybin 2 mg/kg i.p.): completely suppressed

CC(=O)Oc1cccc2[nH]cc(CCN(C)C)c12.O=C(O)/C=C\C(=O)O [maleate salt, Form A, O-acetyl psilocin maleate]
hygroscopicity (in words) [1]: non-hygroscopic
hygroscopicity (in words) ([1]; listed as maleate salt): minimal water sorption over the RH range
overall water uptake ([1]; DVS): approx. 0.8%
solid form of the post-DVS specimen [1]: consistent with Form A

CC(=O)Oc1cccc2[nH]cc(CCN(C)C)c12.CS(=O)(=O)O [mesylate salt, Form A, O-Acetyl Psilocin Mesylate]
hygroscopicity (in words) [1]: non-hygroscopic in the range from 5-55% RH; also recorded: highly hygroscopic material above 55% RH
Water uptake ([1]; DVS, above 55% RH): 40%
solid form of the post-DVS specimen [1]: a liquid

COc1ccc(NC(=O)Nc2ccc(F)cc2F)cc1-c1c(Br)cnn1C [nelotanserin]
effect on psilocybin-induced head-twitch response (5-HT2A receptors; [3]): partially suppressed
effect on psilocybin-induced head-twitch response (5-HT2A receptors; [4]): completely suppressed; also recorded: completed suppressed
effect on psilocybin-induced head twitch, summary of Examples 13-21 (5-HT2A receptors): partial suppression
Result (suppression of psilocybin-induced head twitch) (5-HT2A receptors; [5]): Partial suppression of head twitch,
Result (suppression of psilocybin-induced head twitch) at high dose (5-HT2A receptors; psilocybin 2 mg/kg i.p., antagonist at high dose (4 mg/kg) i.v. at T=7 min, head twitches scored to 40 min): full suppression at high dose

N#Cc1c[nH]c2c(C(=O)N3CCN(CCc4ccc(F)cc4)CC3)cccc12 [pruvanserin]
effect on psilocybin-induced head-twitch response (5-HT2A receptors; [3]): completely suppressed
effect on psilocybin-induced head twitch, summary of Examples 13-21 (5-HT2A receptors): full ending
Result (suppression of psilocybin-induced head twitch) (5-HT2A receptors; [5]): Full suppression of head twitch

CN(C)CCc1c[nH]c2cccc(OP(=O)(O)O)c12 [psilocybin]
hygroscopicity (in words) [1]: hygroscopic between 75-95% RH; also recorded: Hygroscopic above 75% RH:
solid form of the post-DVS specimen [1]: converted to a hydrate Form B; also recorded: a hydrated form of psilocybin resulted from water sorption between 75-95% RH; also recorded: Crystalline Form B (hydrate)

Cc1nc2sccn2c(=O)c1CCN1CCC(=C(c2ccc(F)cc2)c2ccc(F)cc2)CC1 [ritanserin]
effect on psilocybin-induced head-twitch response (5-HT2A receptors; [3]): completely suppressed
effect on psilocybin-induced head twitch, summary of Examples 13-21 (5-HT2A receptors): full ending
Result (suppression of psilocybin-induced head twitch) (5-HT2A receptors; [5]): Full suppression of head twitch

COc1cccc([C@H](O)C2CCN(CCc3ccc(F)cc3)CC2)c1OC [volinanserin]
effect on psilocybin-induced head-twitch response (5-HT2A receptors; [3]): completely suppressed
effect on psilocybin-induced head twitch, summary of Examples 13-21 (5-HT2A receptors): full ending
Result (suppression of psilocybin-induced head twitch) (5-HT2A receptors; [5]): Full suppression of head twitch

Maleate
Water uptake ([1]; 5-95% RH): ~0.8, 5-95%
Water uptake (25-65% RH) % [1]: ~0.3%
Water solubility ([2]; water): >50 mg/mL
